Test results as given in patent US7348140B1, “Clinical indications for genotyping polymorphic variants of G-protein coupled receptors” (Acadia Pharmaceuticals, Inc., priority 2001, dated 2008).
Where a chain is given by its changes, count along the chain named. “And” between values parts separate entries of the source, which are not always exact repeats. Equal values may be shown once. Where a name gives a salt, the structure may show the parent alone. Read-outs that look alike come from different tables or passages of the source. Each block holds one compound with its values, some of them ahead of it.

Columns and labels:
[1] = target: histamine H2 receptor (Arginine 215 / Lysine 231) (Homo sapiens, UniProt P25021); assay: R-SAT functional assay, histamine H2 receptor wild type; assay type: cell-based; conditions: agonists and inverse agonists; for EC50: read-out: Ave −Log EC50 (converted)
[2] = target: serotonin 7 receptor (Leucine 421) (Homo sapiens, UniProt P34969); assay: R-SAT functional assay, serotonin 7 receptor wild type; assay type: cell-based; conditions: Leucine 421 (wild type), inverse agonists, Table 20; for EC50: read-out: Ave −Log EC50 (converted)
[3] = target: serotonin 7 receptor L421P (Proline 421) (Homo sapiens, UniProt P34969, L421P); assay: R-SAT functional assay, serotonin 7 receptor L421P; assay type: cell-based; conditions: Table 20; for EC50: read-out: Ave −Log EC50 (converted); for FOLD: shift in functional potency, Proline 421 vs Leucine 421
[4] = target: serotonin 1E receptor (Isoleucine 44 / Serine 262) (Homo sapiens, UniProt P28566); assay: cell-based
[5] = target: serotonin 1E receptor I44T (Threonine 44) (Homo sapiens, UniProt P28566, I44T); assay: cell-based
[6] = target: serotonin 1E receptor S262F (Phenylalanine 262) (Homo sapiens, UniProt P28566, S262F); assay: cell-based
[7] = target: dopamine D2 receptor (Leucine 40 / Valine 208) (Homo sapiens, UniProt P14416); assay: R-SAT functional assay, dopamine D2 receptor wild type; assay type: cell-based
[8] = target: T1, dopamine D2 receptor L40R (Arginine 40) (Homo sapiens, UniProt P14416, L40R); assay: R-SAT functional assay, dopamine D2 receptor L40R; assay type: cell-based
T1 construct: expressed in transfected cells; host or cells: NIH-3T3

[9] = target: T2, dopamine D2 receptor V208L (Leucine 208) (Homo sapiens, UniProt P14416, V208L); assay: R-SAT functional assay, dopamine D2 receptor V208L; assay type: cell-based
T2 construct: expressed in transfected cells; host or cells: NIH-3T3

[10] = target: T3, alpha 1A/C receptor (Glycine 43 / Isoleucine 200) (Homo sapiens, UniProt P35348, C347R/Q431E); assay: R-SAT functional assay, alpha 1A/C receptor wild type; assay type: cell-based; conditions: read-out: Ave −Log EC50 (converted)
T3 construct: expressed in transfected cells; host or cells: NIH-3T3
T3 sequence (P35348 1-464 C347R/Q431E): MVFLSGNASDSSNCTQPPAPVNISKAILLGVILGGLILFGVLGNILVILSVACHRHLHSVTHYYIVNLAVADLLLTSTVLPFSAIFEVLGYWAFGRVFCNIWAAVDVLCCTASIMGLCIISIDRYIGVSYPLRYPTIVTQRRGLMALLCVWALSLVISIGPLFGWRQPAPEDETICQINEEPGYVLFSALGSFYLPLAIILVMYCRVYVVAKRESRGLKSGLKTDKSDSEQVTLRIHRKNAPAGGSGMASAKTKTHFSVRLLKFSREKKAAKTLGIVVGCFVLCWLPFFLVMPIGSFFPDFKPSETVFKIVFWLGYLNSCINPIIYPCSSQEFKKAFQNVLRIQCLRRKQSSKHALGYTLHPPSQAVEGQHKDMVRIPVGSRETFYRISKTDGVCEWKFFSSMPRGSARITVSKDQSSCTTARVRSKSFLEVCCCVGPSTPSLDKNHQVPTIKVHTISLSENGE

[11] = target: T4, alpha 1A/C receptor G43C (Cysteine 43) (Homo sapiens, UniProt P35348, C347R/G43C/Q431E); assay: R-SAT functional assay, alpha 1A/C receptor G43C; assay type: cell-based; conditions: Table 1
T4 construct: expressed in transfected cells; host or cells: NIH-3T3

[12] = target: T5, alpha 1A/C receptor I200S (Serine 200) (Homo sapiens, UniProt P35348, C347R/I200S/Q431E); assay: R-SAT functional assay, alpha 1A/C receptor I200S; assay type: cell-based; conditions: Table 2; for EC50: Serine 200 (I200S), read-out: Ave −Log EC50 (converted); for FOLD: shift in functional potency, Serine 200 vs Isoleucine 200
T5 construct: expressed in transfected cells; host or cells: NIH-3T3
T5 sequence (P35348 1-464 I200S/C347R/Q431E): T3 sequence (P35348 1-464 C347R/Q431E) with I200S

[13] = target: serotonin 2B receptor (Arginine 388) (Homo sapiens, UniProt P41595); assay: cell-based
[14] = target: serotonin 2B receptor R388W (Tryptophan 388) (Homo sapiens, UniProt P41595, R388W); assay: cell-based
[15] = target: T6, thromboxane receptor V80E (Glutamic Acid 80) (Homo sapiens, UniProt P21731, V80E); assay: R-SAT functional assay, thromboxane receptor V80E; assay type: cell-based; conditions: shift in functional potency, Glutamic Acid 80 vs Valine 80; Table 26
T6 construct: expressed in transfected cells; host or cells: NIH-3T3

[16] = target: T7, thromboxane receptor E94V (Valine 94) (Homo sapiens, UniProt P21731, E94V); assay: R-SAT functional assay, thromboxane receptor E94V; assay type: cell-based; conditions: shift in functional potency, Valine 94 vs Glutamine 94; Table 27
T7 construct: expressed in transfected cells; host or cells: NIH-3T3

[17] = target: T8, thromboxane receptor V176E (Glutamic Acid 176) (Homo sapiens, UniProt P21731, V176E); assay: R-SAT functional assay, thromboxane receptor V176E; assay type: cell-based; conditions: shift in functional potency, Glutamic Acid 176 vs Valine 176
T8 construct: expressed in transfected cells; host or cells: NIH-3T3

[18] = target: T9, histamine H2 receptor K231R (Arginine 231) (Homo sapiens, UniProt P25021, K231R); assay: R-SAT functional assay, histamine H2 receptor K231R; assay type: cell-based
T9 construct: expressed in transfected cells; host or cells: NIH-3T3

[19] = target: dopamine D1 receptor (Threonine 37 / Proline 79 / Serine 199) (Homo sapiens, UniProt P21728); assay: R-SAT functional assay, dopamine D1 receptor wild type; assay type: cell-based; conditions: read-out: Ave −Log EC50 (converted)
[20] = target: T10, dopamine D1 receptor T37P (Proline 37) (Homo sapiens, UniProt P21728, T37P); assay: R-SAT functional assay, dopamine D1 receptor T37P; assay type: cell-based; conditions: Table 3
T10 construct: expressed in transfected cells; host or cells: NIH-3T3

[21] = target: T11, dopamine D1 receptor P79S (Serine 79) (Homo sapiens, UniProt P21728, P79S); assay: R-SAT functional assay, dopamine D1 receptor P79S; assay type: cell-based; conditions: Table 4
T11 construct: expressed in transfected cells; host or cells: NIH-3T3

[22] = target: T12, dopamine D1 receptor S199A (Alanine 199) (Homo sapiens, UniProt P21728, S199A); assay: R-SAT functional assay, dopamine D1 receptor S199A; assay type: cell-based; conditions: Table 5
T12 construct: expressed in transfected cells; host or cells: NIH-3T3

[23] = target: T13, cholecystokinin B receptor L224Q (Glutamine 224) (Homo sapiens, UniProt P32239, E288K/L224Q); assay: R-SAT functional assay, cholecystokinin B receptor L224Q; assay type: cell-based
T13 construct: expressed in transfected cells; host or cells: NIH-3T3

[24] = target: Neuropeptide Y1 receptor, wild type (Histidine 298) (UniProt P25929); assay: cell-based or functional assay
[25] = target: Neuropeptide Y1 receptor H298P variant (Proline 298) (UniProt P25929); assay: cell-based or functional assay
[26] = Arginine 215 (wild type), Table 10
[27] = Lysine 231 (wild type), Table 11
[28] = Proline 421 (L421P), inverse agonists
[29] = Isoleucine 200 (wild type), Table 2

EC50 [1, 26]: 234 nM
Ave −Log EC50 [1, 27]: 6.63
Compound: CN(C)CCCSC(=N)N

EC50 [2]: 0.417 nM
EC50 [3, 28]: 11.2 nM
FOLD [3]: 27.0 fold
Compound: OCCN1CCN([C@@H]2C[C@@H](c3ccc(F)cc3)c3ccc(C(F)(F)F)cc32)CC1 (racemic) [Tefludazine]

Compound: CN1CCC(c2c[nH]c3ccc(O)cc23)CC1.O=C(O)/C=C\C(=O)O [BRL54443, 3-(1-Methylpiperidin-4-yl)-1H-indole-5-ol maleate]
Ave −Log EC50 [4]: 7.53
EC50 [4]: 29.5 nM
EC50 [5]: 1480 nM
FOLD [5]: 50 fold
EC50 [6]: 174 nM
FOLD [6]: 5.9 fold

Compound: CC(C)C[C@H]1C(=O)N2CCC[C@H]2[C@]2(O)O[C@](NC(=O)[C@@H]3C=C4c5cccc6[nH]c(Br)c(c56)C[C@H]4N(C)C3)(C(C)C)C(=O)N12 [Bromocriptine]
EC50 ([7]; Ave −Log EC50): 0.447 nM and 1.66 nM
EC50 [8]: 47.9 nM
EC50 [9]: 0.295 nM

EC50 ([10]; Glycine 43 (wild type), Table 1): 42.7 nM
EC50 [10, 29]: 15.5 nM
EC50 ([11]; Cysteine 43 (G43C), read-out: Ave −Log EC50 (converted)): 14.5 nM
FOLD ([11]; shift in functional potency, Cysteine 43 vs Glycine 43): −3.0 fold
EC50 [12]: 47.9 nM
FOLD [12]: 3.1 fold
Compound: c1ccc(C2CC2)c(OCC2=NCCN2)c1 [Cirazoline]

Ave −Log EC50 [2]: 8.05
Ave −Log EC50 [3, 28]: 7.61
FOLD [3]: 2.8 fold
Compound: OCCN1CCN(CC/C=C2/c3ccccc3Sc3ccc(C(F)(F)F)cc32)CC1 [Cis-flupenthixol]

Compound: CN1C[C@H](C(=O)N[C@]2(C)O[C@@]3(O)[C@@H]4CCCN4C(=O)[C@H](Cc4ccccc4)N3C2=O)C[C@@H]2c3cccc4[nH]cc(c34)C[C@H]21 [Dihydroergotamine, dihydroergotamine]
EC50 ([7]; Ave −Log EC50): 0.0513 nM and 0.269 nM
EC50 [8]: 24.5 nM
FOLD [8]: 479 fold
EC50 [9]: 0.0513 nM
FOLD [9]: −5.2 fold
EC50 [13]: 0.0933 nM
EC50 [14]: 1.17 nM
FOLD [14]: 2.5 fold

EC50 [10, 29]: 550 nM
EC50 [12]: 2140 nM
FOLD [12]: 3.9 fold
Compound: CC(CCc1ccc(O)cc1)NCCc1ccc(O)c(O)c1 (stereo not drawn) [Dobutamine]

EC50 [2]: 6.76 nM
EC50 [3, 28]: 38.9 nM
FOLD [3]: 5.8 fold
Compound: OCCN1CCN(CCCN2c3ccccc3Sc3ccc(C(F)(F)F)cc32)CC1 [Fluphenazine]

FOLD [15]: 93 fold
FOLD [16]: 3.5 fold
FOLD [17]: 13 fold
Compound: O=C(O)CCC/C=C\C[C@@H]1[C@@H](/C=C/[C@@H](O)COc2ccc(I)cc2)[C@H]2CC[C@@H]1O2 [I-BOP]

EC50 ([7]; Leucine 40 (wild type), Table 6, read-out: Ave −Log EC50 (converted)): 3.55 nM
EC50 ([7]; Valine 208 (wild type), Table 7, read-out: Ave −Log EC50 (converted)): 6.92 nM
EC50 ([9]; Leucine 208 (V208L), Table 7, read-out: Ave −Log EC50 (converted)): 2.14 nM
Compound: CN1C[C@@H](NS(=O)(=O)N(C)C)C[C@@H]2c3cccc4c3c(cn4C)C[C@H]21 [Mesulergine]

EC50 ([13]; Arginine 388 (wild type), Table 19, read-out: Ave −Log EC50 (converted)): 39.8 nM
Compound: CNCCC=C1c2ccccc2CCc2ccccc21 [Nortryptiline]

Compound: COc1ccc(C2CNC(=O)C2)cc1OC1CCCC1 (stereo not drawn) [ROLIPRAM]
EC50 [1, 26]: 437 nM
Ave −Log EC50 [1, 27]: 6.36
EC50 [18]: 692 nM
FOLD [18]: 1.6 fold

EC50 ([19]; Proline 79 (wild type), Table 4): 34.7 nM
EC50 ([19]; Serine 199 (wild type), Table 5): 91.2 nM
EC50 ([19]; Threonine 37 (wild type), Table 3): 91.2 nM
EC50 ([20]; Proline 37 (T37P), read-out: Ave −Log EC50 (converted)): 955 nM
FOLD ([20]; shift in functional potency, Proline 37 vs Threonine 37): 11 fold
EC50 ([21]; Serine 79 (P79S), read-out: Ave −Log EC50 (converted)): 4570 nM
FOLD ([21]; shift in functional potency, Serine 79 vs Proline 79): 132 fold
EC50 ([22]; Alanine 199 (S199A), read-out: Ave −Log EC50 (converted)): 955 nM
FOLD ([22]; shift in functional potency, Alanine 199 vs Serine 199): 11 fold
Compound: CN1CCc2c(cc(O)c(O)c2Cl)C(c2ccccc2)C1 (stereo not drawn) [SKF82957, R(+)-6-Chloro-7,8-dihydroxy-3-methyl-1-phenyl-2,3,4,5-tetrahydro-1H-3-benzazapine hydrobromide]

EC50 [2]: 6.92 nM
EC50 [3, 28]: 21.9 nM
FOLD [3]: 3.2 fold
Compound: CN1CCN(CC/C=C2/c3ccccc3Sc3ccc(S(=O)(=O)N(C)C)cc32)CC1 [Thiothixene]

FOLD [15]: 63 fold
FOLD [16]: 6.0 fold
FOLD [17]: 5 fold
Compound: CCCCC[C@H](O)/C=C/[C@@H]1[C@@H](C/C=C\CCCC(=O)O)[C@H]2CO[C@@H]1C2 [U46619]

Ave −Log EC50 [1, 26]: 7.81
Ave −Log EC50 [1, 27]: 7.82
Ave −Log EC50 ([18]; Arginine 231 (K231R), agonists and inverse agonists, Table 11): 7.29
Compound: ANTHAMINE

Compound: CCK-4
FOLD [23]: −12.0 fold

Compound: CCK-8-Sulfated
FOLD [23]: −3.0 fold

Ave -Log EC50, R-SAT functional potency [24]: 7.5 -log EC50
Compound: Leu/Pro NPY (from UniProt P01303 29-97) (peptide)

Ave -Log EC50, R-SAT functional potency [25]: 6.91 -log EC50
FOLD (shift in functional potency against wild type) [25]: 1070 fold
Ave -Log EC50, R-SAT functional potency [24]: 9.94 -log EC50
Compound: PEPTIDE YY (HUMAN) (from UniProt P10082 29-64)
